From patent US12390472B2 (SUZHOU SINOVENT PHARMACEUTICALS CO., LTD., priority 2018, dated 2025)

Columns and labels:
EZH2 enzyme complex = EZH2 enzyme complex (Homo sapiens (Human), UniProt Q15910); experiment: Test on EZH2 inhibitory activity (TR-FRET); type: biochemical; details: EZH2 enzyme complex 25 ng/uL, histone H3 peptide 4 uM, SAM 2 uM, 300 min; read-out: IC50 of EZH2 inhibition
[1] = In vivo pharmacokinetic properties in mice; parameters: species or system mouse; details: male ICR mice; for F: intragastric 250 mg/kg vs intravenous 5 mg/kg; for CL / AUC(0-inf) / Cmax / Tmax / half-life: single intravenous 5 mg/kg and intragastric 250 mg/kg study; for AUC(0-inf) / Cmax / Tmax / half-life: mouse, plasma; for AUC(0-inf) / Cmax / Tmax: oral; for Cmax: read-out: Cmax; for Tmax: read-out: Tmax
Experimental: Male ICR mice were divided into different groups with 3 mice in each group, and single intravenous injection and single intragastric administration were conducted respectively. The compounds were formulated with 10% DMSO/90% (20% Captisol) to reach an appropriate concentration and then administered intravenously at 5 mg/kg. The compounds were formulated with 0.5% CMC-Na/0.1% Tween 80 (pH=3-4) to reach an appropriate concentration and then administered intragastrically at 250 mg/kg. Blood was taken at 5 min, 15 min, 30 min, 1 h, 2 h, 4 h, 6 h, 8 h and 24 h after administration, and then subjected to EDTA-K2 anticoagulation. The concentration of the compound in the plasma was quantitatively detected by an LC-MS/MS method.

EZH2 enzyme complex, sequence (Q15910 whole entry): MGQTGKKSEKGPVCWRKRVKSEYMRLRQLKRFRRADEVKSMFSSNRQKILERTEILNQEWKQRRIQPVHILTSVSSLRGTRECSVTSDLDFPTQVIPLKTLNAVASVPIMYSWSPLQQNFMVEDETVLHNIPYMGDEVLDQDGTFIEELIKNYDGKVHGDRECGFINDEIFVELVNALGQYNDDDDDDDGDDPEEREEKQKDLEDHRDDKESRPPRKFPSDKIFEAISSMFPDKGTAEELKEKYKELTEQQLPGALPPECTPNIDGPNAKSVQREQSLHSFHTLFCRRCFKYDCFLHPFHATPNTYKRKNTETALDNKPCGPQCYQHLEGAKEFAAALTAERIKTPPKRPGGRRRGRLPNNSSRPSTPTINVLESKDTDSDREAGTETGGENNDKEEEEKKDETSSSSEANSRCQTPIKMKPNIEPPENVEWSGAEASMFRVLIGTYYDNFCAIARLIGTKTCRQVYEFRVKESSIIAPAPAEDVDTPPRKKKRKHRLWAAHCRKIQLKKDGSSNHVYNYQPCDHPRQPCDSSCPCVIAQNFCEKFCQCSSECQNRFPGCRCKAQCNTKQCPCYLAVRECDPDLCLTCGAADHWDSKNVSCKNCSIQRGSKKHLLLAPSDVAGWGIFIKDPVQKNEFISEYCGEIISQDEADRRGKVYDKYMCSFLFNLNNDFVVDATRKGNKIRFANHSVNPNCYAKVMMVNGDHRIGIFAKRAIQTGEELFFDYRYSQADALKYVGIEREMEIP
EZH2 enzyme complex, sequence (O75530 whole entry partner): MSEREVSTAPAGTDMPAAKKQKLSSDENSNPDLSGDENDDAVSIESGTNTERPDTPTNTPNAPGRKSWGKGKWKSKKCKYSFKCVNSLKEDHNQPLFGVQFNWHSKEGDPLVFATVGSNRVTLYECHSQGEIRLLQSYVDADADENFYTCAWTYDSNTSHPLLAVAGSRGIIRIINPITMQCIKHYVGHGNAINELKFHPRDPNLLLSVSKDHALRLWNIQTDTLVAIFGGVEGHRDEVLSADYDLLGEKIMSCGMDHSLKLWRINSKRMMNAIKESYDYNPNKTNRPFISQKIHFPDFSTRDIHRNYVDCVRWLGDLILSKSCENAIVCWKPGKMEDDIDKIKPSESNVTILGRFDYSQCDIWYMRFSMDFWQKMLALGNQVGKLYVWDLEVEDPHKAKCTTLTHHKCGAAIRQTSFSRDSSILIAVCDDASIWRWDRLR
EZH2 enzyme complex, sequence (Q15022 whole entry partner): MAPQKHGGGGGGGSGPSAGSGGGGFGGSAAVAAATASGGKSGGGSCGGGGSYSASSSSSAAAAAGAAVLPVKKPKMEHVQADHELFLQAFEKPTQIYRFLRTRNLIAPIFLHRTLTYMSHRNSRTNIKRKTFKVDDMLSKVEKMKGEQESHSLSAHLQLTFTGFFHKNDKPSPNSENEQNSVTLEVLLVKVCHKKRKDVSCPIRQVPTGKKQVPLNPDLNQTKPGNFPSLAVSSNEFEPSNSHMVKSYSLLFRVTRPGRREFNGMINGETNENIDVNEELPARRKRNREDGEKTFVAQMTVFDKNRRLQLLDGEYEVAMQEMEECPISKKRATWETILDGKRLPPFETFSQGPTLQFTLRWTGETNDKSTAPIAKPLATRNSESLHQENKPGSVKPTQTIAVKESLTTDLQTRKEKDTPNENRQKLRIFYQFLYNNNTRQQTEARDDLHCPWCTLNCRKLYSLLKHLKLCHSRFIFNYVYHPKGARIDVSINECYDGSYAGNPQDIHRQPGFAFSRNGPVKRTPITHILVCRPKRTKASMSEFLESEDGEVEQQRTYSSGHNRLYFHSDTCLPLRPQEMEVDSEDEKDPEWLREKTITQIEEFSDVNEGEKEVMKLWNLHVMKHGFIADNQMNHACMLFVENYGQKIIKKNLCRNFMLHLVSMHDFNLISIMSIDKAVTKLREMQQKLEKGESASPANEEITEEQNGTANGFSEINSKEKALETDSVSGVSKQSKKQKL

| Compound | IC50 (EZH2 enzyme complex) | also measured |
| --- | --- | --- |
| CCN(c1cc(O[C@H]2C[C@@H](N3CCNCC3)C2)cc(C(=O)NCc2c(C)cc(C)[nH]c2=O)c1Cl)C1CCOCC1 [Example 42, 2-chloro-N-((4,6-dimethyl-2-oxo-1,2-dihydropyridin-3-yl)methyl)-3-(ethyl(tetrahydro-2H-pyran-4-yl)amino)-5-(cis-3-(piperazin-1-yl)cyclobutoxy)benzamide] | 10 to 100 nM | – |
| CCN(c1cc(C2CC2CN2CCN(C)CC2)cc(C(=O)NCc2c(C)cc(C)[nH]c2=O)c1C)[C@H]1CC[C@H](N(C)CCOC)CC1 (stereo partly drawn) [Example 81, N-((4,6-dimethyl-2-oxo-1,2-dihydropyridin-3-yl)methyl)-3-(ethyl(trans-4-((2-methoxyethyl)(methyl)amino)cyclohexyl)amino)-2-methyl-5-(2-((4-methylpiperazin-1-yl)methyl)cyclopropyl)benzamide] | 10 to 100 nM | – |
| CCN(c1cc(O[C@H]2C[C@H](N3CCOCC3)C2)cc(C(=O)NCc2c(C)cc(C)[nH]c2=O)c1Cl)C1CCOCC1 [Example 41, 2-chloro-N-((4,6-dimethyl-2-oxo-1,2-dihydropyridin-3-yl)methyl)-3-(ethyl(tetrahydro-2H-pyran-4-yl)amino)-5-(trans-3-morpholinylcyclobutoxy)benzamide] | 10 to 100 nM | – |
| CCN(c1cc(O[C@H]2C[C@H](N3CCCCC3)C2)cc(C(=O)NCc2c(C)cc(C)[nH]c2=O)c1Cl)C1CCOCC1 [Example 66, 2-chloro-N-((4,6-dimethyl-2-oxo-1,2-dihydropyridin-3-yl)methyl)-3-(ethyl(tetrahydro-2H-pyran-4-yl)amino)-5-(trans-3-(piperidin-1-yl)cyclobutoxy)benzamide] | – | F [1]: 38.3%; CL [1]: 53.5 ± 13.44 mL/min/lg; AUC(0-inf) [1]: 31200 ng·h/mL; Cmax [1]: 16700 ± 4970 ng/mL; Tmax [1]: 0.42 ± 0.14 h; half-life [1]: 5.05 ± 0.75 h |
| CCN(c1cc(C2CC2CN2CCOCC2)cc(C(=O)NCc2c(C)cc(C)[nH]c2=O)c1Cl)C1CCOCC1 (stereo not drawn) [Example 84, 2-chloro-N-((4,6-dimethyl-2-oxo-1,2-dihydropyridin-3-yl)methyl)-3-(ethyl(tetrahydro-2H-pyran-4-yl)amino)-5-(2-(morpholinylmethyl)cyclopropyl)benzamide] | 100 to 1000 nM | – |
| CCN(c1cc(O[C@H]2C[C@@H](N3CCOCC3)C2)cc(C(=O)NCc2c(C)cc(C)[nH]c2=O)c1Cl)C1CCOCC1 [Example 40, 2-chloro-N-((4,6-dimethyl-2-oxo-1,2-dihydropyridin-3-yl)methyl)-3-(ethyl(tetrahydro-2H-pyran-4-yl)amino)-5-(cis-3-morpholinylcyclobutoxy)benzamide] | 10 to 100 nM | – |
| CCN(c1cc(O[C@H]2C[C@H](N3CCNCC3)C2)cc(C(=O)NCc2c(C)cc(C)[nH]c2=O)c1Cl)C1CCOCC1 [Example 43, 2-chloro-N-((4,6-dimethyl-2-oxo-1,2-dihydropyridin-3-yl)methyl)-3-(ethyl(tetrahydro-2H-pyran-4-yl)amino)-5-(trans-3-(piperazin-1-yl)cyclobutoxy)benzamide] | 10 to 100 nM | – |
| CCN(c1cc(O[C@H]2C[C@H](N3C[C@@H](C)O[C@@H](C)C3)C2)cc(C(=O)NCc2c(C)cc(C)[nH]c2=O)c1C)C1CCN(CC(F)(F)F)CC1 [Example 50, N-((4,6-dimethyl-2-oxo-1,2-dihydropyridin-3-yl)methyl)-5-(trans-3-(cis-2,6-dimethylmorpholinyl)cyclobutoxy)-3-(ethyl (1-(2,2,2-trifluoroethyl)piperidin-4-yl)amino)-2-methylbenzamide] | 10 to 100 nM | – |
| CCN(c1cc(O[C@H]2C[C@H](CN3CCOCC3)C2)cc(C(=O)NCc2c(C)cc(C)[nH]c2=O)c1F)C1CCOCC1 [Example 61, N-((4,6-dimethyl-2-oxo-1,2-dihydropyridin-3-yl)methyl)-3-(ethyl(tetrahydro-2H-pyran-4-yl)amino)-2-fluoro-5-(trans-3-(morpholinomethyl)cyclobutoxy)benzamide] | > 1000 nM | – |
| CCN(c1cc(O[C@H]2C[C@H](N3CCC(C)CC3)C2)cc(C(=O)NCc2c(C)cc(C(F)(F)F)[nH]c2=O)c1Cl)C1CCOCC1 [Example 90] | > 1000 nM | – |
| CCN(c1cc(O[C@H]2C[C@H](N3C[C@@H](C)O[C@@H](C)C3)C2)cc(C(=O)NCc2c(C)cc(C)[nH]c2=O)c1C)C1CCOCC1 [Example 44, N-((4,6-dimethyl-2-oxo-1,2-dihydropyridin-3-yl)methyl)-5-(trans-3-(cis-2,6-dimethylmorpholinyl)cyclobutoxy)-3-(ethyl(tetrahydro-2H-pyran-4-yl)amino)-2-methylbenzamide] | 10 to 100 nM | – |
| Cc1cc(C)c(CNC(=O)c2cc(OC3CCC3)cc(OC3CCOCC3)c2C)c(=O)[nH]1 [Example 5, 5-cyclobutoxy-N-((4,6-dimethyl-2-oxo-1,2-dihydropyridin-3-yl)methyl)-2-methyl-3-((tetrahydro-2H-pyran-4-yl)oxy)benzamide] | 100 to 1000 nM | – |
| CCN(c1cc(O[C@H]2C[C@H](N3CCC(C)CC3)C2)cc(C(=O)NCc2c(OC)cc(C)[nH]c2=O)c1Cl)C1CCOCC1 [Example 89] | 10 to 100 nM | – |
| CCN(c1cc(O[C@H]2C[C@H](N3CCOCC3)C2)cc(C(=O)NCc2c(C)cc(C)[nH]c2=O)c1C)C1CC2CCC(C1)O2 (stereo partly drawn) [Example 86] | – | F [1]: 29.5%; CL [1]: 65.5 ± 1.60 mL/min/lg; AUC(0-inf) [1]: 18800 ± 4560 ng·h/mL; Cmax [1]: 21000 ± 8040 ng/mL; Tmax [1]: 0.25 h; half-life [1]: 4.19 ± 3.07 h |
| CCN(c1cc(O[C@H]2C[C@H](N3CC4CC(C3)O4)C2)cc(C(=O)NCc2c(C)cc(C)[nH]c2=O)c1C)C1CCOCC1 [Example 54, 5-(trans-3-(6-oxa-3-azabicyclo[3.1.1]heptan-3-yl)cyclobutoxy)-N-((4,6-dimethyl-2-oxo-1,2-dihydropyridin-3-yl)methyl)-3-(ethyl(tetrahydro-2H-pyran-4-yl)amino)-2-methylbenzamide] | 10 to 100 nM | – |
| CCN(c1cc(O[C@H]2C[C@H](CN3CCOCC3)C2)cc(C(=O)NCc2c(C)cc(C)[nH]c2=O)c1C)[C@H]1CC[C@H](N(C)CCOC)CC1 [Example 32, N-((4,6-dimethyl-2-oxo-1,2-dihydropyridin-3-yl)methyl)-3-(ethyl(trans-4-((2-methoxyethyl)(methyl)amino)cyclohexyl)amino)-2-methyl-5-(trans-3-(morpholinylmethyl)cyclobutoxy)benzamide] | 10 to 100 nM | – |
| CCN(c1cc(O[C@H]2C[C@H](N3CCOCC3)C2)cc(C(=O)NCc2c(C)cc(C)[nH]c2=O)c1C)C1CCOC1 (stereo partly drawn) [Example 64, N-((4,6-dimethyl-2-oxo-1,2-dihydropyridin-3-yl)methyl)-3-(ethyl(tetrahydrofuran-3-yl)amino)-2-methyl-5-(trans-3-morpholin-4-ylcyclobutoxy)benzamide] | 10 to 100 nM | – |
